Counter-ions that a name gives are not always drawn.
How the values were obtained:
[1] = test system: esterase(s) in rat hepatic microsomes; assay: Esterase assay with rat hepatic microsomes; type: in vitro ADME; settings: for Esterase RHA (relative hydrolytic activity): E16-1,2 = 100
Experimental: Esterase. Esterase activity was measured in rat hepatic microsomes essentially using the conditions described.^39 Liver obtained from Sprague-Dawley rats was washed with phosphate buffered saline and homogenized in 3 volumes of cold 0.25 M sucrose and centrifuged at 700 g for 10 min and then at 10,000 g for 20 min. The resulting supernatant was centrifuged at 105,000 g for 60 min. The pellet was suspended in 0.1 M phosphate buffer pH 7.4 and washed by centrifugation at 105,000 g for 60 min. The washed pellet was suspended in 0.1 M Tris-HCl pH 8.0 at a concentration of ˜13 mg protein/ml and frozen at −80° C. For assay, the pellets were thawed and diluted with the same buffer. The incubation mixture consisted of the microsomal enzyme preparation, 0.28 mg protein/ml, E2-16α-alkyl esters, 50 μM, added in 10 μL of ethanol, all in a final volume of 1 mL of Tris buffer pH 8.0. Since the rates of reaction are widely different for the various esters, the incubation times were varied accordingly to obtain linear kinetics. At several appropriate time points, 100 μL aliquots were withdrawn and the reaction was quenched with 33 μL CH3CN, followed by a 33 μL of a solution of THF containing 1 […] of the internal standard, 6-ketoestradiol. The quenched aliquot was centrifuged for several minutes on bench-top centrifuge and 80 μl of the supernatant was analyzed for the esterase-hydrolysis product (the corresponding E2-16α-carboxylic acid: E16-1,0 8; E16-2,0 23; E16-3,0 35) by reversed phase HPLC with system H-10 for E2-16-1 and E2-16-2 esters, and with system H-15 for E2-16-3 esters. The E2-16α-carboxyl products, (Rt for E16-1,0 8=7 min and for E16-2,0 23=9 min, E16-3,0 35=6.5 min) and the internal standard, 6-ketoestradiol (Rt 7.5 min in system H-10, and 5 min in system H-15) were quantified at 280 nm on the HPLC UV detector. The UV absorbance was converted to moles of product by comparison to standard curves and corrected for recovery of the internal standard, 6-ketoestradiol. The velocity of the reaction for each ester, in nmol product/min/ml/ was then normalized to the ester, E16-1,2 10 and is shown in Table 1 as relative hydrolytic activity (RHA). The enzymatic velocity for the hydrolysis of E16-1,2 10 was 0.9±0.2 (S.D.) nmol product/min/ml over the various experiments. Since all of the esters could not be tested simultaneously, in each case we compared the rate of hydrolysis of the test compound to that of E16-1,2 10 run concurrently. All compounds were tested in triplicate in 3 separate experiments.

[2] = test system: ovariectomized mouse vagina (vaginal reductase activity); assay: In vivo local estrogenic assay (vaginal reductases); settings: for dose producing a statistically significant (P<0.001) stimulation of vaginal reductase: intravaginal single dose in 25% propylene glycol in saline (FIG. 3a)
Experimental: FIG. 3 depicts the results of in vivo local estrogenic assay (vaginal assay).
Controls were injected with vehicle. The next morning, 2,3,5-triphenyltetrazolium chloride was instilled in the vagina and thirty minutes later the animals were killed and the vaginal reductase activity was determined spectrophotometrically Panel a: the steroids were dissolved in 10 μL of 25% propylene glycol in saline. Panel b: the steroids were dissolved in 10 μL of sesame oil. n=5. Error bars are±S.D. *P<0.001 compared to the control.
In Vivo Estrogen Bioassays: Vaginal reductases. […] In some experiments as indicated, the method was modified by dissolving and injecting the estrogens in 10 μL of sesame oil. The next morning 0.5 mg of 2,3,5-triphenyltetrazolium chloride in 20 μL of saline was instilled in the vagina. Thirty minutes the animals were killed and the vaginas removed, washed thoroughly with saline and then blotted on filter paper. Each vagina was placed in a 12×75 mm test tube and extracted for 1 hour with ethanol/tetrachloroethylene (3:1). Afterwards, the solvent was removed and the formazan product in the organic extract was quantified at 500 nm. Each compound was assayed on at least 3 separate occasions with at least 5 replicates each time.

[3] = test system: alkaline phosphatase (AlkP) induction in Ishikawa cells; assay: Estrogenic potency in Ishikawa cells: induction of AlkP; type: cell-based, human; settings: for RSA (estrogenic potency compared to E2): Ishikawa AlkP; for Ishikawa Cell AlkP RSA (relative stimulatory activity): induction of AlkP, E2 = 100, ± S.D.
Experimental: Estrogenic Potency in Ishikawa Cells. The estrogenic potency of the E2-analogs was determined in a estrogen bioassay, the induction of AlkP in human endometrial adenocarcinoma cells (Ishikawa) grown in 96-well microtiter plates as we have previously described.^28 In short, the cells are grown in phenol red free medium with estrogen depleted (charcoal stripped) bovine serum in the presence or absence of varying amounts of the steroids. […] After 3 days, the cells are washed, frozen and thawed, and then incubated with 5 mM p-nitrophenyl phosphate, a chromogenic substrate for the AlkP enzyme, at pH 9.8. To ensure linear enzymatic analysis, the plates are monitored kinetically for the for the production of p-nitrophenol at 405 nm. The relative stimulatory activity is determined by analysis of the curve fitting program Prism. Each compound was analyzed in at least 3 separate experiments performed in duplicate.

[4] = test system: human ERβ and ERα; assay: Competitive binding to human ERβ and ERα expressed in Escherichia coli lysates (ratio of RBAs); settings: RBAs (E2 = 100) in E. coli lysates expressing human ERβ and ERα separately
[5] = molecular target: T1, ER in rat uterine cytosol (ERα) (Rattus norvegicus, UniProt P06211); assay: Competitive binding to the ER in rat uterine cytosol (RBA vs [3H]E2); settings: for ER RBA (relative binding affinity): rat uterine estrogen receptor assay, E2 = 100, ± S.D.; for RBA: uterine cytosol (ERα), relative to E2
T1 construct: The uterus was removed and homogenized in ice-cold TEGDMo buffer; from tissue; host or cells: uterine cytosol of castrated female Sprague Dawley rats
T1 sequence (P06211 1-600): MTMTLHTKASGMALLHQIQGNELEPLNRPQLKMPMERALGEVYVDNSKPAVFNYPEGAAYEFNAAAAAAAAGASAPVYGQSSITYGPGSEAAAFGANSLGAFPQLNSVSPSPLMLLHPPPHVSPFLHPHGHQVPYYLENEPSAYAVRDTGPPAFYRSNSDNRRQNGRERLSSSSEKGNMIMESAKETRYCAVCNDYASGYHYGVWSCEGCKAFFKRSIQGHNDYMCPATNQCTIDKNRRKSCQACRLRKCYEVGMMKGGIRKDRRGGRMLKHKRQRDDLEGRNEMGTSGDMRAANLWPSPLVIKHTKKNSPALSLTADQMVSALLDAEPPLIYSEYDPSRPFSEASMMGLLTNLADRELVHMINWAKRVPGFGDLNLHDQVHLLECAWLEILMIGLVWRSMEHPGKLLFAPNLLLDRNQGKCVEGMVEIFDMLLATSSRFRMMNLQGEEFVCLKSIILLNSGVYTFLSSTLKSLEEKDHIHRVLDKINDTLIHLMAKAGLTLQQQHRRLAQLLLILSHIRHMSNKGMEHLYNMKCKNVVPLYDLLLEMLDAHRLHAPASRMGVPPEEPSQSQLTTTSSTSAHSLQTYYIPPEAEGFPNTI
Experimental: Competitive Binding to the Estrogen Receptor ERα and ERβ. […] The ER in uterine cytosol is ERα the classical form of the ER.^38 Female Sprague Dawley rats were castrated and sacrificed 24 h later. The uterus was removed and homogenized in ice-cold TEGDMo buffer (10 mM Tris, 1.5 mM Na2-EDTA, 10% (v/v) glycerol, 1.0 mM dithiothreitol, 25 mM sodium molybdate, pH 7.4 at 4° C.). and centrifuged at 105,000 g for 45 min at 4° C. The supernatant (cytosol) was frozen on dry ice and stored at −80° C. until assay. […] Incubations were carried out on ice overnight and bound radioactivity was separated from free by adsorption with dextran coated charcoal and quantified by counting.^26 Relative Binding Affinity (RBA) was determined by analysis of the displacement curves by the curve-fitting program Prism (Graph-Pad Software inc., San Diego, Calif.). The results shown in Table 1. below, are from at least 3 separate experiments performed in duplicate.

[6] = test system: immature female rats (uterine weight); assay: In vivo systemic estrogenic assay (uterotrophic assay, uterine weight); parameters: species or system rat
Experimental: FIG. 2 depicts of the results of an in vivo systemic estrogenic assay (uterotrophic assay) as described in the experimental section. […] On the fourth day the animals were killed, the uteri removed and weighed. The total dose is shown. Controls were injected with sesame oil. Error bars are±S.D. n=5. *P<0.05, **P<0.001 when compared to the control.
In Vivo Estrogen Bioassays: Uterine Weight. […] Control animals received sesame oil. On the fourth day, the animals were killed, the uteri were removed, dissected, blotted and weighed. Each compound was assayed in 3 separate experiments with n=5.

[7] = Stability on incubation with heat denatured enzyme under esterase assay conditions; type: in vitro ADME; settings: heat denatured (1 h at 80° C.) enzyme, 37° C.
Experimental: The various E2-16α-alkyl esters, including the reactive E16-1,2vin 15, were stable under the conditions used in the esterase assay. Each of the substrates was incubated with heat denatured (1 h at 80° C.) enzyme at 37° C. for periods that exceeded the incubation times of the enzyme assay. Only insignificant amounts of carboxyl products were formed from any of these esters during the incubations with denatured enzyme.

Row | Compound | Esterase RHA (relative hydrolytic activity) ([1]; rat hepatic microsomes, ± S.D.) | vaginal estrogenic effect ([2]; 50 ng in sesame oil (FIG. 3b)) | dose producing a statistically significant (P<0.001) stimulation of vaginal reductase [2] [ng] | RSA (estrogenic potency compared to E2) [3] [%] | Ishikawa Cell AlkP RSA (relative stimulatory activity) [3] | ERα/ERβ (ratio of the RBAs) [4] | ER RBA (relative binding affinity) [5] | RBA [5] [%] | uterotrophic effect ([6]; 10 μg total dose per animal) | uterotrophic effect expressed as equivalent amount of E2 ([6]; 100 μg total dose) | also measured
1 | COC(=O)[C@@H]1C[C@H]2[C@@H]3CCc4cc(O)ccc4[C@H]3CC[C@]2(C)[C@H]1O [E16-1,1, Methyl (3,17β-dihydroxyestra-1,3,5(10)-trien-16α-yl) formate] | 45 ± 10 | still not stimulatory | 250 | 10 | 10 ±3 | 750 | 35 ± 4 | 35 | small stimulatory action (P<0.05) | about 4 μg | uterotrophic stimulation expressed as equivalent amount of E2 ([6]; 30 μg total dose): ~3 ng; dose producing a reproducible and statistically significant stimulation (P<0.01) ([6]; immature rat, s.c. in sesame oil, 3 days, total dose): 30 to 50 µg
2 | CCOC(=O)[C@@H]1C[C@H]2[C@@H]3CCc4cc(O)ccc4[C@H]3CC[C@]2(C)[C@H]1O [E16-1,2, Ethyl (3,17β-dihydroxyestra-1,3,5(10)-trien-16α-yl) formate] | 100 | still not stimulatory | 250 | 11 | 11 ± 5 | 1,300 | 40 ± 10 | 40 | no measurable stimulation | about 4 μg | enzymatic velocity for the hydrolysis ([1]; rat hepatic microsomes 0.28 mg protein/ml, ester 50 μM, pH 8.0, ± S.D.): 0.9±0.2 nmol product/min/ml; uterotrophic effect ([6]; 30 μg total dose): small increase in uterine weight
3 | C[C@]12CC[C@@H]3c4ccc(O)cc4CC[C@H]3[C@@H]1C[C@@H](C(=O)OCCF)[C@@H]2O [E16-1,2F1, 2′-Fluoroethyl (3,17β-dihydroxyestra-1,3,5(10)-trien-16α-yl) formate] | 420 ± 40 | produced a significant estrogenic effect | 100 | 13 | 13 ± 5 | 2,000 | 35 ± 3 | 35 | – | – | rate of cleavage relative to the non-fluorinated ester E16-1,2 ([1]; esterase, rat hepatic microsomes): about 4 times; vaginal estrogenic effect ([2]; 10 ng in sesame oil): consistent stimulation at 10 ng of E16-1,2F1, however, it was not statistically significant; vaginal estrogenic effect expressed as equivalent dose of E2 ([2]; 50 ng in sesame oil (FIG. 3b)): ~20 pg; uterotrophic effect ([6]; 100 μg total dose): did not produce a uterotrophic stimulation; uterotrophic effect expressed as equivalent amount of E2 ([6]; 300 μg total dose): less than 5 ng; uterotrophic effect ([6]; 300 μg total dose, other experiments (not shown)): small uterotrophic effect
4 | C=COC(=O)[C@@H]1C[C@H]2[C@@H]3CCc4cc(O)ccc4[C@H]3CC[C@]2(C)[C@H]1O [E16-1,2vin, Vinyl (3,17β-dihydroxyestran-1,3,5(10)-trien-16α-yl) formates] | 20,300 ± 5,500 | – | – | – | 0.4 ± 0.3 | – | 6 ± 2 | 6 | – | – | stability under the conditions used in the esterase assay [7]: stable

From patent publication US6476012B2, “Estradiol-16α-carboxylic acid esters as locally active estrogens” (Yale University, priority 2001, dated 2002)
